From patent publication US7589123B2, “Chemical compounds” (Phytopharm PLC, priority 2006, dated 2009) come the findings set out here.

The subject of data set [1] is histamine-induced contractions in guinea pig ileum. The experiment in a line: Inhibition of histamine-induced contractions in guinea pig ileum (Assay 3). To be noted: Cavia porcellus, histamine 1.7 μM, read-out: Inhibition of histamine-induced contraction (%). In a few lines: (§1)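 Ileal strips from male Duncan Hartley guinea pigs were held at 1 g tension in 32° C oxygenated Krebs (pH 7.4) with isotonic transducers. After control contractions to 5-HT (2.6 μM) or histamine (1.7 μM), compound at 3 and 30 μM was added, its own effect noted, and agonist re-applied.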

For data set [2], the system named is 5-HT-induced contractions in guinea pig ileum. In words: Inhibition of 5-HT-induced contractions in guinea pig ileum (Assay 3). To be noted: Cavia porcellus, 5-HT 2.6 μM, read-out: Inhibition of 5-HT-induced contraction (%). In outline:
as §1

In data set [3] the test system is α-smooth muscle actin (α-SMA) mRNA. The experiment in a line: Anti-remodelling activity in human lung fibroblasts (HFL1): TGFβ-induced α-SMA mRNA (Assay 4). The class given is cell-based. To be noted: Homo sapiens, HFL1 cells, TGFβ 10 ng/ml, 24 h, read-out: Inhibition of α-SMA mRNA synthesis (%). In a few lines:
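Real-time RT-PCR of α-SMA mRNA, GAPDH as reference, measured after 24 h exposure of low-serum-primed HFL1 cells to 10 ng/ml TGFβ with test compounds (3 and 30 μM) in 10% FBS medium. Readout is inhibition of TGFβ-driven α-SMA mRNA overexpression.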

Data set [4] relates to IL-1α-induced PGE2 release. The experiment in a line: IL-1α-induced PGE2 release in human diploid lung fibroblasts (WI-38) (Assay 5). It counts as cell-based. To be noted: Homo sapiens, WI-38 cells, IL-1α 1 nM, overnight. In a few lines:
(§2)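 Cell viability was read by Alamar Blue fluorescence (530/590 nm) after 4 h at 37 °C, following an overnight 37 °C incubation of human lung fibroblasts with 1 nM IL-1α and compound (3 or 30 μM) in 10% FBS MEM, pH 7.3. Supernatant PGE2 was measured by radioimmunoassay to derive percent inhibition.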

For data set [5], the system named is WI-38 cells. The experiment in a line: Viability of WI-38 cells, Alamar Blue (Assay 5). The class given is cell-based, human. In outline: as §2
The target of data set [6] is T1, 5-lipoxygenase (Homo sapiens, UniProt P09917).
T1 construct: endogenous in cells; host or cells: human peripheral blood mononuclear leukocytes (PBMLs)
T1 sequence (P09917 1-674): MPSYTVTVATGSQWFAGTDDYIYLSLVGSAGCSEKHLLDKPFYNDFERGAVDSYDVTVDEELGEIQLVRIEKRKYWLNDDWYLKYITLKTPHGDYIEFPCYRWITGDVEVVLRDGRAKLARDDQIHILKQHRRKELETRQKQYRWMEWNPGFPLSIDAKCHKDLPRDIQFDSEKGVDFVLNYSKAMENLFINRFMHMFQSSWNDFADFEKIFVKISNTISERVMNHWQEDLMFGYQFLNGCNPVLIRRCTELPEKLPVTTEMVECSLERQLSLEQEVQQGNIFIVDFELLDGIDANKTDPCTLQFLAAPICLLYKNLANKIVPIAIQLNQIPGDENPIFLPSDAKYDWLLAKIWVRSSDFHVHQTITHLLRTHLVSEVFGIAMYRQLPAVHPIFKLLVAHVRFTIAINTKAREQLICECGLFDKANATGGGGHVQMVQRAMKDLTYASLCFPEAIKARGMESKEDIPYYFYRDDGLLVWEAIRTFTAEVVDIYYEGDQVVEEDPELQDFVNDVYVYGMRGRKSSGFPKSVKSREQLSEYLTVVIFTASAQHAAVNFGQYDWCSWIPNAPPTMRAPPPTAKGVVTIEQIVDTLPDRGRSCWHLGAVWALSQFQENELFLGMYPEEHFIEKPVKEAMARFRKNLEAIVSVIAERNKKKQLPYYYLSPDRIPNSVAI
The experiment in a line: 5-lipoxygenase activity (LTB4) in human peripheral blood mononuclear leukocytes (Assay 6). It counts as cell-based. The settings on record: human PBMLs, A23187 30 μM, read-out: Inhibition of 5-LO (%). In outline:
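LTB4 in supernatant quantified by EIA after 15 min at 37° C. in HBSS, pH 7.4, where Ficoll-isolated human PBMLs (5×10^6) received ionophore A23187 (30 μM) and test compound (3 and 30 μM) or 0.1% DMSO vehicle.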

For data set [7], the target named is TRPV1 receptor (Rattus norvegicus, UniProt O35433). The experiment in a line: TRPV1 modulation in DRG neurones: CGRP release in absence and presence of capsaicin (Assay 2). It counts as cell-based. Also on record: The culture used for this experiment contained sensory neurones, Schwann cells and fibroblasts; endogenous in cells; host or cells: primary rat DRG sensory neurone culture (with Schwann cells and fibroblasts). To be noted: 20 min; for inhibition at 3 µM: 3 μM with capsaicin 1 μM; for Emax at 3 µM: test compound alone 3 μM; for Emax at 3 µM / Emax at 30 µM: rat DRG sensory neurones, read-out: CGRP release (% of capsaicin (1 μM) response); for Emax at 30 µM: test compound alone 30 μM.
TRPV1 receptor, sequence (O35433 whole entry): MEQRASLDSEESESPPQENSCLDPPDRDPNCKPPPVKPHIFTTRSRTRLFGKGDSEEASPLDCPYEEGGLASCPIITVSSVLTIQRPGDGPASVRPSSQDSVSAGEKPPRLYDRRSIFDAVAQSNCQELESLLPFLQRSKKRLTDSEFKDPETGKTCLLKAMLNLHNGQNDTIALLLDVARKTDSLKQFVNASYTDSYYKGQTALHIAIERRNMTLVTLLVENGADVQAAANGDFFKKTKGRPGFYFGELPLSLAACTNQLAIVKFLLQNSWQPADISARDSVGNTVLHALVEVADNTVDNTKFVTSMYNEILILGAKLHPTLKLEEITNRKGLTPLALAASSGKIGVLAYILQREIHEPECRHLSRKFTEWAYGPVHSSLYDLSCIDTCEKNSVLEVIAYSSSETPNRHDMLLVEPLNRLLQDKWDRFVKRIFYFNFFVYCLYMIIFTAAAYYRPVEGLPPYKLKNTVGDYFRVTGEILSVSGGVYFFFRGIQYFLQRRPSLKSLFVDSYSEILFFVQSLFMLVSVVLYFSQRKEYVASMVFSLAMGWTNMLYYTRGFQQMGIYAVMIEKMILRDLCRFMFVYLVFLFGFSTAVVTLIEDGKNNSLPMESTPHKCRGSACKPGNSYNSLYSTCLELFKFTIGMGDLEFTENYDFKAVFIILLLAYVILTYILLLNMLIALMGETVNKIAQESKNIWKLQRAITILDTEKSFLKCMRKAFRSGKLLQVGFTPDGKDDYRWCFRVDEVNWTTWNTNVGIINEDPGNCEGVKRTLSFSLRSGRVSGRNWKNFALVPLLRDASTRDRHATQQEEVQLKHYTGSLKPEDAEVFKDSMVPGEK

[8] abbreviates: −ve: inhibition, +ve: potentiation of capsaicin response, read-out: Effect of test compounds on capsaicin (1 μM)-induced CGRP release (%).
Where [9] appears, read: 30 μM with capsaicin 1 μM, −ve: inhibition, +ve: potentiation of capsaicin response, read-out: Effect of test compounds on capsaicin (1 μM)-induced CGRP release (%).

On to `COc1cc(CCC(=O)CC(=O)c2ccc(C)cc2)ccc1O` [Compound 80, 5-(4-Hydroxy-3-methoxyphenyl)-1-p-tolylpentane-1,3-dione], for which the inhibition at 3 µM in data set [1] is 2%; in data set [2] it was 14%; in data set [3], 4%; in data set [4], 72%; in data set [6], 61%; in data set [7] (setting [8]), 44%. The inhibition at 30 µM in data set [1] is 62%; in data set [2], 68%; in data set [3] it was 29%; in data set [4], 102%; in data set [6] it was 97%; in data set [7] (setting [9]) it was -24%. Moreover, the “Decrease in cell viability (%)” value in data set [5] (3 μM) is reported as 2%; in data set [5] (30 μM) it was 1%. Moreover, the Emax at 3 µM in data set [7] was found to be 68%. In data set [7], the Emax at 30 µM came out at 118%.

Regarding `COc1cc(CCC(=O)CC(=O)c2ccc(C(C)(C)C)cc2)ccc1O` [Compound 83, 1-(4-tert-Butylphenyl)-5-(4-hydroxy-3-methoxyphenyl)pentane-1,3-dione], the inhibition at 3 µM is 16% in data set [1]; 4% in data set [2]; -2% in data set [3]; 86% in data set [4]; 52% in data set [6]; 11% in data set [7] (setting [8]). In addition, the inhibition at 30 µM was 17% in data set [1]; 11% in data set [2]; 86% in data set [3]; 102% in data set [4]; 99% in data set [6]. The “Decrease in cell viability (%)” value in data set [5] (3 μM) is given as 4%; in data set [5] (30 μM), 31%. Besides, the percent change in capsaicin-induced CGRP release (negative = inhibition, positive = potentiation) at 30 µM in data set [7] (setting [9]) turned out to be 0%. Also, the Emax at 3 µM in data set [7] is 66%. Further, in data set [7], the Emax at 30 µM turned out to be 144%.

With `COc1cc(CCC(=O)CC(=O)c2ccc(C#N)cc2)ccc1O` [Compound 82, 1-(4-Cyanophenyl)-5-(4-hydroxy-3-methoxyphenyl)pentane-1,3-dione], the inhibition at 3 µM in data set [1] is 12%; in data set [2], 13%; in data set [3] it was -3%; in data set [4] it was 78%; in data set [6] it was 48%; in data set [7] (setting [8]), 4%. Besides, the inhibition at 30 µM was found to be 20% in data set [1]; 83% in data set [2]; 39% in data set [3]; 102% in data set [4]; 97% in data set [6]; 27% in data set [7] (setting [9]). The entries for the “Decrease in cell viability (%)” value in data set [5] (3 μM) and in data set [5] (30 μM) were −4% and 6%, respectively. Also, in data set [7], the Emax at 3 µM was found to be 53%. For the same compound, the Emax at 30 µM in data set [7] stood at 58%.

For `COc1cc(CCC(=O)CC(=O)C(C)(C)c2ccccc2)ccc1O` [Compound 31, 6-(4-Hydroxy-3-methoxyphenyl)-1,1-dimethyl-1-phenyl-hexane-2,4-dione], the inhibition at 3 µM is 12% in data set [1]; 10% in data set [2]; 34% in data set [3]; 83% in data set [4]; 32% in data set [6]; 17% in data set [7] (setting [8]). Further, the inhibition at 30 µM was 68% in data set [1]; 96% in data set [2]; 80% in data set [3]; 101% in data set [4]; 95% in data set [6]; -77% in data set [7] (setting [9]). Besides, the entries for the “Decrease in cell viability (%)” value in data set [5] (3 μM) and in data set [5] (30 μM) were 5% and −7%, respectively. For the same compound, the Emax at 3 µM in data set [7] is 56%. For the same compound, the Emax at 30 µM in data set [7] worked out at 109%.

Regarding `CCC(C(=O)CCc1ccc(O)c(OC)c1)C(=O)c1ccccc1` (stereo not drawn) [Compound 12, 2-Ethyl-5-(4-hydroxy-3-methoxyphenyl)-1-phenyl-pentane-1,3-dione], the inhibition at 3 µM turned out to be 3% in data set [1]; 3% in data set [2]; 9% in data set [3]; 69% in data set [4]; 41% in data set [6]; 13% in data set [7] (setting [8]). The inhibition at 30 µM in data set [1] worked out at 41%; in data set [2] it was 47%; in data set [3] it was 34%; in data set [4], 101%; in data set [6], 94%; in data set [7] (setting [9]), 14%. For the same compound, the “Decrease in cell viability (%)” value in data set [5] (3 μM) is reported as 6%; in data set [5] (30 μM) it was −5%. Besides, the Emax at 3 µM in data set [7] is 19%. In addition, the Emax at 30 µM in data set [7] was determined as 73%.

As to `COc1cc(CCC(=O)CC(=O)c2ccc(F)cc2)ccc1O` [Compound 20, 1-(4-Fluorophenyl)-5-(4-hydroxy-3-methoxyphenyl)-pentane-1,3-dione], the inhibition at 3 µM in data set [1] is 0%; in data set [2] it was 2%; in data set [3] it was -8%; in data set [4], 87%; in data set [6], 58%; in data set [7] (setting [8]), 29%. Also, the inhibition at 30 µM in data set [1] came to 22%; in data set [2], 74%; in data set [3] it was 11%; in data set [4] it was 99%; in data set [6] it was 98%; in data set [7] (setting [9]), 4%. In addition, the “Decrease in cell viability (%)” value is given as 3% in data set [5] (3 μM) and 10% in data set [5] (30 μM). The Emax at 3 µM in data set [7] turned out to be 46%. Also, the Emax at 30 µM in data set [7] came to 96%.
